Experimental data taken from patent US6060597A, “Cyclic oligosaccharide, and an agent containing the same for preventing or treating retroviral diseases” (Kikkoman Corporation, priority 1997, dated 2000).

Key:
[1] = target: binding of gp120 to CD4 receptor (HIV-1 M:B_HXB2R, UniProt P04578); test: inhibition of the binding of gp120 to CD4 receptor (drug discovery kit, duPont); details: concentration range of 0 to 100 mg/ml; FIG. 5
Protocol: Measurement of anti-HIV activity of sulfated CI-8
Sulfated CI-8 obtained above in Example 1 was examined for the activity of inhibiting the binding of gp120 to CD4 receptor in the concentration range of […] using a drug discovery kit (duPont).

[2] = test system: fresh rat blood; test: anticoagulation activity in fresh rat blood, microtiter plate, visual evaluation of serum separation; assay type: biochemical; details: citrated fresh rat blood, CaCl2-initiated, 15 minutes at room temperature; for anticoagulation activity: judged against 20 U/mg standard
Protocol: Anticoagulation activity of sulfated cyclic oligosaccharide
Sulfated CI-8 was examined for its anticoagulation activity. 1% aqueous sulfated CI-8 solution obtained by dissolving 10 mg of sulfated CI-8 sodium in 1 ml de-ionized water was diluted at various concentrations with 0.85% sterilized NaCl solution (physiological saline) to prepare sulfated CI-8 solutions at various concentrations. Solutions of dextran 5000 sodium sulfate (Wako Pure Chemical Industries, Ltd.) at various concentrations were also prepared in the same manner. Standard solutions at various concentrations were prepared using dextran sodium sulfate having 20 U/mg anticoagulation activity (a gift from Meito Sangyo K. K.).
40 μl each of the aqueous solutions were put to each well on a 96-well microtiter plate. Then, 50 μof fresh rat blood containing 0.38% trisodium citrate was put to each well and mixed. Further, 10 μl of 2% aqueous CaCl2 solution and mixed whereby blood-coagulation reaction was initiated. The plate was left at room temperature for 15 minutes and centrifuged at 2000 rpm for 10 minutes, and the separation of the serum in each well was visually evaluated. As a result, the anticoagulation activity of sulfated CI-8 was judged to be about 1/2 relative to the known dextran sodium sulfate, so its activity was judged to be about […]. The activity of dextran 5000 sodium sulfate was judged to be about 40 U/mg.

[3] = test system: fresh rat blood; details: stated activity of the standard substance (gift from Meito Sangyo K. K.); cited from earlier work

Substance | activity of inhibiting the binding of gp120 to CD4 receptor [1] | anticoagulation activity [2] | anticoagulation activity relative to the known dextran sodium sulfate ([2]; relative to 20 U/mg standard) | anticoagulation activity of the standard [3] [U/mg]
cyclic isomaltoctaose-heptadecyl-0-sulfate sodium salt [sulfated CI-8] | inhibited the binding of pg120 to CD4 in proportion to its concentration | about 10 U/ml | about 1/2 | 
dextran 5000 sodium sulfate [reference compound] |  | about 40 U/mg |  | 
dextran sodium sulfate |  |  |  | 20
